In US20220073554A1, “LINCOSAMIDE ANTIBIOTICS AND USES THEREOF” (President and Fellows of Harvard College, priority 2017, published 2022):
In brackets after ≈: the same amount, converted by molar mass. Read-outs that look alike come from different tables or passages of the source.

How the values were obtained:
Format in all cases: cell-based
S. aureus ATCC 29213 = experiment: MIC against S. aureus ATCC 29213; settings: Staphylococcus aureus
[1] = tested on: S. aureus MP-513 clinical cErm; experiment: MIC against S. aureus MP-513 clinical cErm; settings: Staphylococcus aureus
K. pneumoniae ATCC 10031 = experiment: MIC against K. pneumoniae ATCC 10031; settings: Klebsiella pneumoniae, ATCC10031
E. coli MP-9 ΔTolC = experiment: MIC against E. coli MP-9 ΔTolC; settings: Escherichia coli
P. aeruginosa ATCC 27853 = experiment: MIC against P. aeruginosa ATCC 27853; settings: Pseudomonas aeruginosa, ATCC27853
E. coli ATCC 25922 = experiment: MIC against E. coli ATCC 25922; settings: Escherichia coli, ATCC25922
S. aureus BAA 977 iErmA = experiment: MIC against S. aureus BAA 977 iErmA; settings: Staphylococcus aureus, BAA977
[2] = tested on: S. aureus MP-549 msr(a) USA 300; experiment: MIC against S. aureus MP-549 msr(a) USA 300; settings: Staphylococcus aureus, USA300, S. aureus MP-549 msr(a) USA 300
S. aureus MMX 3035 cErmA = experiment: MIC against S. aureus MMX 3035 cErmA; settings: Staphylococcus aureus, MMX3035CERMA; S. aureus MMX 3035 cErmA; read-out: MIC
S. pneumoniae ATCC 49619 = experiment: MIC against S. pneumoniae ATCC 49619; settings: Streptococcus pneumoniae, ATCC49619
[3] = tested on: S. pneumoniae MMX 3028 cErmB; experiment: MIC against S. pneumoniae MMX 3028 cErmB; settings: Streptococcus pneumoniae, MMX3028CERMB; S. pneumoniae MMX 3028 cErmB; read-out: MIC
[4] = tested on: S. pneumoniae MMX 3031 cMefA; experiment: MIC against S. pneumoniae MMX 3031 cMefA; settings: Streptococcus pneumoniae, MMX3031CMEFA
S. pyogenes ATCC 19615 = experiment: MIC against S. pyogenes ATCC 19615; settings: Streptococcus pyogenes, ATCC19615; S. pyogenes ATCC 19615; read-out: MIC
E. faecalis ATCC 29212 = experiment: MIC against E. faecalis ATCC 29212; settings: Enterococcus faecalis
[5] = tested on: E. faecalis MMX 847 Macrolide-Resistant; experiment: MIC against E. faecalis MMX 847 Macrolide-Resistant; settings: Enterococcus faecalis, read-out: MIC
E. coli ATCC 15922 = experiment: MIC against E. coli ATCC 15922; settings: Escherichia coli, ATCC15922; E. coli ATCC 15922; read-out: MIC
C. difficile BAA 1805 = experiment: MIC against C. difficile BAA 1805; settings: Clostridioides difficile, BAA1805
[6] = tested on: E. coli MP-74 LptD mutant; experiment: MIC against E. coli MP-74 LptD mutant; settings: Escherichia coli
H. influenzae ATCC 49247 = experiment: MIC against H. influenzae ATCC 49247; settings: Haemophilus influenzae, ATCC49247
[7] = tested on: S. pyogenes MMX 946 Macrolide-Resistant; experiment: MIC against S. pyogenes MMX 946 Macrolide-Resistant; settings: Streptococcus pyogenes; S. pyogenes MMX 946 Macrolide-Resistant (MacRes); read-out: MIC
[8] = ATCC29213, S. aureus ATCC 29213, read-out: MIC

| Compound | MIC (S. aureus ATCC 29213; ATCC29213) [µg/mL] | MIC [1] [µg/mL] | MIC (K. pneumoniae ATCC 10031) [µg/mL] | MIC (E. coli MP-9 ΔTolC) [µg/mL] | MIC (P. aeruginosa ATCC 27853) [µg/mL] | MIC (E. coli ATCC 25922) [µg/mL] | MIC (S. aureus BAA 977 iErmA) [µg/mL] | MIC [2] [µg/mL] | MIC (S. aureus ATCC 29213; [8]) [µg/mL] | also measured |
| --- | --- | --- | --- | --- | --- | --- | --- | --- | --- | --- |
| CSC1O[C@H]([C@H](NC(=O)[C@H]2NC[C@@H]3CN(C(=N)N)CCO[C@H]32)[C@H](C)Cl)C(O)[C@@H](O)[C@H]1O (stereo partly drawn) [FSA-504057] | > 64 | > 64 | > 64 | > 64 | > 64 | > 64 | – | – | – | – |
| CCNC(=O)N1CCO[C@@H]2[C@H](CN[C@@H]2C(=O)N[C@H]([C@H](C)Cl)[C@H]2OC(SC)[C@H](O)[C@H](O)C2O)C1 (stereo partly drawn) [FSA-503004] | > 64 | > 64 | > 64 | > 64 | > 64 | > 64 | > 64 | > 64 | – | – |
| CSC1O[C@H]([C@H](NC(=O)[C@H]2NC[C@@H]3C[C@@H](c4cc(F)cc(F)c4)CCO[C@H]32)[C@H](C)Cl)C(O)[C@@H](O)[C@H]1O (stereo partly drawn) [FSA-511080] | – | – | – | 4 (≈ 7.26 µM) | – | – | – | – | – | MIC (S. aureus MMX 3035 cErmA): > 64 µg/mL; MIC (S. pneumoniae ATCC 49619; S. pneumoniae ATCC 49619, read-out: MIC): ≤ 0.06 µg/mL; MIC [3]: 8 µg/mL (≈ 14.5 µM); MIC [4]: ≤ 0.06 µg/mL; MIC (S. pyogenes ATCC 19615): ≤ 0.06 µg/mL; MIC (E. faecalis ATCC 29212; ATCC29212, read-out: MIC): 0.5 µg/mL (≈ 0.907 µM); MIC ([5]; E. faecalis MMX 847 MacRes): > 64 µg/mL; MIC (E. coli ATCC 15922): > 64 µg/mL |
| C=CCOC(=O)N1CCO[C@@H]2[C@H](CN[C@@H]2C(=O)N[C@H]([C@H](C)Cl)[C@H]2OC(SC)[C@H](O)[C@H](O)C2O)C1 (stereo partly drawn) [FSA-503073] | – | > 64 | > 64 | > 64 | > 64 | > 64 | – | – | – | – |
| CSC1O[C@H]([C@H](NC(=O)[C@H]2NC[C@@H]3CC(N)CCO[C@H]32)[C@H](C)Cl)C(O)[C@@H](O)[C@H]1O (stereo partly drawn) [FSA-510012] | > 64 | – | > 64 | > 64 | – | > 64 | > 64 | > 64 | – | MIC (S. pneumoniae ATCC 49619): > 64 µg/mL; MIC (E. faecalis ATCC 29212; ATCC29212): > 64 µg/mL; MIC (C. difficile BAA 1805): > 64 µg/mL; MIC [6]: > 64 µg/mL; MIC (H. influenzae ATCC 49247): > 64 µg/mL |
| CSC1O[C@H]([C@H](NC(=O)[C@H]2NC[C@@H]3C=C(c4cccc(F)c4)CCO[C@@H]23)[C@H](C)Cl)C(O)[C@@H](O)[C@H]1O (stereo partly drawn) [FSA-511071] | – | – | – | – | – | – | 2 (≈ 3.77 µM) | 1 (≈ 1.88 µM) | 2 (≈ 3.77 µM) | MIC (S. aureus MMX 3035 cErmA): > 64 µg/mL; MIC [4]: 0.5 µg/mL (≈ 0.942 µM); MIC (S. pyogenes ATCC 19615): 0.5 µg/mL (≈ 0.942 µM); MIC [7]: > 64 µg/mL; MIC (E. faecalis ATCC 29212; ATCC29212, read-out: MIC): 4 µg/mL (≈ 7.53 µM); MIC ([5]; E. faecalis MMX 847 Macrolide-Resistant (MacRes)): > 64 µg/mL; MIC (H. influenzae ATCC 49247; H. influenzae ATCC 49247, read-out: MIC): > 64 µg/mL; MIC (E. coli ATCC 25922; E. coli ATCC 25922, read-out: MIC): > 64 µg/mL |
| CSC1O[C@H]([C@H](NC(=O)[C@H]2NC[C@@H]3CN(CC(=O)O)CCO[C@H]32)[C@H](C)Cl)C(O)[C@@H](O)[C@H]1O (stereo partly drawn) [FSA-504063] | > 64 | > 64 | > 64 | > 64 | > 64 | > 64 | – | – | – | – |
| CSC1O[C@H]([C@H](NC(=O)[C@H]2NC[C@@H]3CN(C)CCO[C@H]32)[C@H](C)Cl)C(O)[C@@H](O)[C@H]1O (stereo partly drawn) [FSA-503002] | – | > 64 | > 64 | > 64 | > 64 | > 64 | > 64 | > 64 | – | – |
| CCCN1CCO[C@@H]2[C@H](CN[C@@H]2C(=O)N[C@H]([C@H](C)Cl)[C@H]2OC(SC)[C@H](O)[C@H](O)C2O)C1 (stereo partly drawn) [FSA-503003] | – | > 64 | > 64 | > 64 | > 64 | > 64 | 4 (≈ 8.3 µM) | 2 (≈ 4.15 µM) | 4 (≈ 8.3 µM) | – |
| CSC1O[C@H]([C@H](NC(=O)[C@H]2NC[C@@H]3CN(Cc4ccnc(N)c4)CCO[C@H]32)[C@H](C)Cl)C(O)[C@@H](O)[C@H]1O (stereo partly drawn) [FSA-504049] | – | > 64 | > 64 | > 64 | > 64 | > 64 | – | 8 (≈ 14.6 µM) | 14 (≈ 25.6 µM) | – |
